From patent US20220119354A1, “DIAMINO-SUBSTITUTED PYRIDINES AND PYRIMIDINES AS HERBICIDES” (FMC Corporation, priority 2019, published 2022)

Tests used:
Assay type in all cases: in vivo
[1] = tested on: galium (catchweed bedstraw, Galium aparine); assay: Test A postemergence, galium; settings: 0 to 100 scale, 0 no effect, 100 complete control
Summary of the method: (§1)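 Plants grown in a loam soil and sand blend were treated either preemergence by directed soil spray or postemergence when 2 to 10 cm tall (one- to two-leaf stage). Formulation: non-phytotoxic solvent mixture with surfactant. Greenhouse hold ~10 d, then visual injury assessment on a 0–100 scale.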

[2] = tested on: ryegrass, Italian (Lolium multiflorum); assay: Test A postemergence, Italian ryegrass; settings: 0 to 100 scale, 0 no effect, 100 complete control
Summary of the method: as §1

kochia (Kochia scoparia) [3] = assay: Test A preemergence, kochia; settings: 0 to 100 scale, 0 is no effect, 100 is complete control
Summary of the method: as §1

rice (Oryza sativa) = assay: Test B flooded paddy test, rice; settings: Flood, 250 g ai/ha, applied to paddy water, 2-leaf stage, visual evaluation after 13 to 15 d
Summary of the method: (§2)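 Visual injury scores run from 0 (no effect) to 100 (complete control), assigned by comparison with controls 13 to 15 d after treatment. Treatment went into floodwater standing 3 cm over the soil of pots holding 2-leaf plants.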

[4] = tested on: ryegrass, Italian (Lolium multiflorum); assay: Test A preemergence, Italian ryegrass; settings: 0 to 100 scale, 0 is no effect, 100 is complete control
Summary of the method: as §1

[5] = tested on: foxtail, giant (Setaria faberii); assay: Test A postemergence, giant foxtail; settings: 0 to 100 scale, 0 no effect, 100 complete control
Summary of the method: as §1

[6] = tested on: ragweed (common ragweed, Ambrosia elatior); assay: Test A postemergence, ragweed; settings: 0 to 100 scale, 0 no effect, 100 complete control
Summary of the method: as §1

[7] = tested on: barnyardgrass (Echinochloa crus-galli); assay: Test B flooded paddy test, barnyardgrass; settings: Flood, 250 g ai/ha, applied to paddy water, 2-leaf stage, visual evaluation after 13 to 15 d
Summary of the method: as §2

kochia (Kochia scoparia) [8] = assay: Test A postemergence, kochia; settings: 0 to 100 scale, 0 no effect, 100 complete control
Summary of the method: as §1

corn (Zea mays) = assay: Test A postemergence, corn; settings: 0 to 100 scale, 0 no effect, 100 complete control
Summary of the method: as §1

[9] = tested on: pigweed (Amaranthus retroflexus); assay: Test A postemergence, pigweed; settings: 0 to 100 scale, 0 no effect, 100 complete control
Summary of the method: as §1

[10] = tested on: barnyardgrass (Echinochloa crus-galli); assay: Test A preemergence, barnyardgrass; settings: 0 to 100 scale, 0 is no effect, 100 is complete control
Summary of the method: as §1

[11] = tested on: ragweed (common ragweed, Ambrosia elatior); assay: Test A preemergence, ragweed; settings: 0 to 100 scale, 0 is no effect, 100 is complete control
Summary of the method: as §1

[12] = tested on: sedge, umbrella (small-flower umbrella sedge, Cyperus difformis); assay: Test B flooded paddy test, umbrella sedge; settings: Flood, 250 g ai/ha, applied to paddy water, 2-leaf stage, visual evaluation after 13 to 15 d
Summary of the method: as §2

[13] = tested on: pigweed (Amaranthus retroflexus); assay: Test A preemergence, pigweed; settings: 0 to 100 scale, 0 is no effect, 100 is complete control
Summary of the method: as §1

[14] = tested on: barnyardgrass (Echinochloa crus-galli); assay: Test A postemergence, barnyardgrass; settings: 0 to 100 scale, 0 no effect, 100 complete control
Summary of the method: as §1

[15] = tested on: foxtail, giant (Setaria faberii); assay: Test A preemergence, giant foxtail; settings: 0 to 100 scale, 0 is no effect, 100 is complete control
Summary of the method: as §1

[16] = tested on: wheat (Triticum aestivum); assay: Test A postemergence, wheat; settings: 0 to 100 scale, 0 no effect, 100 complete control
Summary of the method: as §1

[17] = tested on: blackgrass (Alopecurus myosuroides); assay: Test A postemergence, blackgrass; settings: 0 to 100 scale, 0 no effect, 100 complete control
Summary of the method: as §1

[18] = tested on: ducksalad (Heteranthera limosa); assay: Test B flooded paddy test, ducksalad; settings: Flood, 250 g ai/ha, applied to paddy water, 2-leaf stage, visual evaluation after 13 to 15 d
Summary of the method: as §2

Structure (SMILES)	Plant response rating, Galium ([1]; 31 g ai/ha)	Plant response rating, Galium ([1]; 125 g ai/ha)	Plant response rating, Ryegrass, Italian ([2]; 31 g ai/ha)	Plant response rating, Ryegrass, Italian ([2]; 125 g ai/ha)	Kochia plant response rating (kochia (Kochia scoparia) [3]; 31 g ai/ha)	Kochia plant response rating (kochia (Kochia scoparia) [3]; 125 g ai/ha)	Plant response rating, Rice (0 to 100 scale, 0 is no effect, 100 is complete control) (rice (Oryza sativa))	Ryegrass, Italian plant response rating ([4]; 31 g ai/ha)	Ryegrass, Italian plant response rating ([4]; 125 g ai/ha)	Plant response rating, Foxtail, Giant ([5]; 31 g ai/ha)	Plant response rating, Foxtail, Giant ([5]; 125 g ai/ha)	Plant response rating, Ragweed ([6]; 31 g ai/ha)	Plant response rating, Ragweed ([6]; 125 g ai/ha)	Plant response rating, Barnyardgrass (0 to 100 scale, 0 is no effect, 100 is complete control) [7]	Plant response rating, Kochia (kochia (Kochia scoparia) [8]; 31 g ai/ha)	Plant response rating, Kochia (kochia (Kochia scoparia) [8]; 125 g ai/ha)	Plant response rating, Corn (corn (Zea mays); 31 g ai/ha)	Plant response rating, Corn (corn (Zea mays); 125 g ai/ha)	Plant response rating, Pigweed ([9]; 31 g ai/ha)	Plant response rating, Pigweed ([9]; 125 g ai/ha)	further results
C[C@@H](Nc1nc(N)c(C(F)(F)F)c(C(F)F)n1)c1cc2ccccc2o1 [Compound 111]	20	50	0	0	40	70	0	0	0	0	0	40	50	0	0	60	0	20	50	80	Barnyardgrass plant response rating ([10]; 31 g ai/ha): 0; Barnyardgrass plant response rating ([10]; 125 g ai/ha): 0; Ragweed plant response rating ([11]; 31 g ai/ha): 30; Ragweed plant response rating ([11]; 125 g ai/ha): 90; Plant response rating, Sedge, Umbrella (0 to 100 scale, 0 is no effect, 100 is complete control) [12]: 0; Pigweed plant response rating ([13]; 31 g ai/ha): 10; Pigweed plant response rating ([13]; 125 g ai/ha): 70; Plant response rating, Barnyardgrass ([14]; 31 g ai/ha): 10; Plant response rating, Barnyardgrass ([14]; 125 g ai/ha): 0; Foxtail, Giant plant response rating ([15]; 31 g ai/ha): 0; Foxtail, Giant plant response rating ([15]; 125 g ai/ha): 10; Plant response rating, Wheat ([16]; 31 g ai/ha): 0; Plant response rating, Wheat ([16]; 125 g ai/ha): 0; Plant response rating, Blackgrass ([17]; 31 g ai/ha): 0; Plant response rating, Blackgrass ([17]; 125 g ai/ha): 0; Plant response rating, Ducksalad (0 to 100 scale, 0 is no effect, 100 is complete control) [18]: 0
CC(F)c1nc(N[C@H](C)c2cc3ccccc3o2)nc(N)c1C(F)(F)F (stereo partly drawn) [Compound 112]	20	60	0	0	0	70	0	0	0	0	0	0	0	0	10	60	30	0	30	60	Barnyardgrass plant response rating ([10]; 31 g ai/ha): 0; Barnyardgrass plant response rating ([10]; 125 g ai/ha): 0; Ragweed plant response rating ([11]; 31 g ai/ha): 0; Ragweed plant response rating ([11]; 125 g ai/ha): 30; Plant response rating, Sedge, Umbrella (0 to 100 scale, 0 is no effect, 100 is complete control) [12]: 0; Pigweed plant response rating ([13]; 31 g ai/ha): 0; Pigweed plant response rating ([13]; 125 g ai/ha): 80; Plant response rating, Barnyardgrass ([14]; 31 g ai/ha): 0; Plant response rating, Barnyardgrass ([14]; 125 g ai/ha): 0; Foxtail, Giant plant response rating ([15]; 31 g ai/ha): 0; Foxtail, Giant plant response rating ([15]; 125 g ai/ha): 0; Plant response rating, Wheat ([16]; 31 g ai/ha): 0; Plant response rating, Wheat ([16]; 125 g ai/ha): 0; Plant response rating, Blackgrass ([17]; 31 g ai/ha): 0; Plant response rating, Blackgrass ([17]; 125 g ai/ha): 0; Plant response rating, Ducksalad (0 to 100 scale, 0 is no effect, 100 is complete control) [18]: 0
C[C@@H](Nc1ncc(C(F)(F)F)c(N)n1)c1cc2c(F)ccc(F)c2s1 [Compound 114]	60	90	0	40	30	60	20	30	50	10	100	40	80	65	50	80	10	30	100	100	Barnyardgrass plant response rating ([10]; 31 g ai/ha): 0; Barnyardgrass plant response rating ([10]; 125 g ai/ha): 40; Ragweed plant response rating ([11]; 31 g ai/ha): 40; Ragweed plant response rating ([11]; 125 g ai/ha): 60; Plant response rating, Sedge, Umbrella (0 to 100 scale, 0 is no effect, 100 is complete control) [12]: 80; Pigweed plant response rating ([13]; 31 g ai/ha): 50; Pigweed plant response rating ([13]; 125 g ai/ha): 100; Plant response rating, Barnyardgrass ([14]; 31 g ai/ha): 10; Plant response rating, Barnyardgrass ([14]; 125 g ai/ha): 30; Foxtail, Giant plant response rating ([15]; 31 g ai/ha): 10; Foxtail, Giant plant response rating ([15]; 125 g ai/ha): 70; Plant response rating, Wheat ([16]; 31 g ai/ha): 0; Plant response rating, Wheat ([16]; 125 g ai/ha): 30; Plant response rating, Blackgrass ([17]; 31 g ai/ha): 0; Plant response rating, Blackgrass ([17]; 125 g ai/ha): 30; Plant response rating, Ducksalad (0 to 100 scale, 0 is no effect, 100 is complete control) [18]: 65
Cc1cccc2sc([C@@H](C)Nc3ncc(C(F)(F)F)c(N)n3)cc12 [Compound 115]	50	90	30	50	40	80	0	20	40	60	100	30	80	90	70	90	10	100	100	100	Barnyardgrass plant response rating ([10]; 31 g ai/ha): 20; Barnyardgrass plant response rating ([10]; 125 g ai/ha): 60; Ragweed plant response rating ([11]; 31 g ai/ha): 60; Ragweed plant response rating ([11]; 125 g ai/ha): 80; Plant response rating, Sedge, Umbrella (0 to 100 scale, 0 is no effect, 100 is complete control) [12]: 95; Pigweed plant response rating ([13]; 31 g ai/ha): 90; Pigweed plant response rating ([13]; 125 g ai/ha): 100; Plant response rating, Barnyardgrass ([14]; 31 g ai/ha): 10; Plant response rating, Barnyardgrass ([14]; 125 g ai/ha): 100; Foxtail, Giant plant response rating ([15]; 31 g ai/ha): 30; Foxtail, Giant plant response rating ([15]; 125 g ai/ha): 90; Plant response rating, Wheat ([16]; 31 g ai/ha): 0; Plant response rating, Wheat ([16]; 125 g ai/ha): 20; Plant response rating, Blackgrass ([17]; 31 g ai/ha): 0; Plant response rating, Blackgrass ([17]; 125 g ai/ha): 30; Plant response rating, Ducksalad (0 to 100 scale, 0 is no effect, 100 is complete control) [18]: 65
